# Experiments:
# Assay type in all cases: functional, cell-based
# [1] = system: HeLa; test: Antiproliferative activity against human HeLa cells assessed as inhibition of cell proliferation incubated for 48 hrs by MTT assay
# [2] = system: MCF7; test: Antiproliferative activity against human MCF7 cells assessed as inhibition of cell proliferation incubated for 48 hrs by MTT assay; conditions: MCF7, 48 h
# [3] = system: MDA-MB-231; test: Antiproliferative activity against human MDA-MB-231 cells assessed as inhibition of cell proliferation incubated for 48 hrs by MTT assay; conditions: MDA-MB-231, 48 h
IC50 [1] [µM],IC50 [2] [µM],IC50 [3] [µM],Compound
> 75,> 75,–,C=C(C)[C@@H]1CC[C@]2(C(=O)OCc3ccccc3)CC[C@]3(C)[C@H](CC[C@@H]4[C@@]5(C)CC[C@@H](OC(=O)CCl)C(C)(C)[C@@H]5CC[C@]43C)[C@@H]12
> 100,> 100,> 100,C=C(C)[C@@H]1CC[C@]2(C(=O)OCc3ccccc3)CC[C@]3(C)[C@H](CC[C@@H]4[C@@]5(C)CC[C@H](OC(=O)N6CCN(C(=O)CCl)CC6)C(C)(C)[C@@H]5CC[C@]43C)[C@@H]12
> 75,> 75,> 75,C=C(C)[C@@H]1CC[C@]2(C(=O)OC)CC[C@]3(C)[C@H](CC[C@@H]4[C@@]5(C)CC[C@H](OC(=O)CCl)C(C)(C)[C@@H]5CC[C@]43C)[C@@H]12
16.9,17.1,–,C=C(C)[C@@H]1CC[C@]2(C(=O)O)CC[C@]3(C)[C@H](CC[C@@H]4[C@@]5(C)CC[C@@H](OC(=O)CCl)C(C)(C)[C@@H]5CC[C@]43C)[C@@H]12
8.73,6.81,9.64,C=C(C)[C@@H]1CC[C@]2(C(=O)O)CC[C@]3(C)[C@H](CC[C@@H]4[C@@]5(C)CC[C@H](OC(=O)NCCNC(=O)CCl)C(C)(C)[C@@H]5CC[C@]43C)[C@@H]12
> 150,> 150,> 150,C=C(C)[C@@H]1CC[C@]2(C(=O)OCc3ccccc3)CC[C@]3(C)[C@H](CC[C@@H]4[C@@]5(C)CC[C@H](OC(=O)NC(=O)CCl)C(C)(C)[C@@H]5CC[C@]43C)[C@@H]12
> 75,> 75,> 75,C=C(C)[C@@H]1CC[C@]2(C(=O)OCc3ccccc3)CC[C@]3(C)[C@H](CC[C@@H]4[C@@]5(C)CC[C@H](OC(=O)CCl)C(C)(C)[C@@H]5CC[C@]43C)[C@@H]12
> 100,> 100,> 100,C=C(C)[C@@H]1CC[C@]2(C(=O)N3CCN(C(=O)CCl)CC3)CC[C@]3(C)[C@H](CC[C@@H]4[C@@]5(C)CC[C@H](OC(=O)Nc6ccccc6)C(C)(C)[C@@H]5CC[C@]43C)[C@@H]12
15.3,16.2,17.6,C=C(C)[C@@H]1CC[C@]2(C(=O)O)CC[C@]3(C)[C@H](CC[C@@H]4[C@@]5(C)CC[C@H](OC(=O)CCl)C(C)(C)[C@@H]5CC[C@]43C)[C@@H]12

# Continued, compound first:
Compound,IC50 [1] [µM],IC50 [2] [µM],IC50 [3] [µM]
C=C(C)[C@@H]1CC[C@]2(C(=O)O)CC[C@]3(C)[C@H](CC[C@@H]4[C@@]5(C)CC[C@H](OC(=O)C(Cl)Cl)C(C)(C)[C@@H]5CC[C@]43C)[C@@H]12,66.2,51.5,35.7
C=C(C)[C@@H]1CC[C@]2(C(=O)N3CCN(C(C)=O)CC3)CC[C@]3(C)[C@H](CC[C@@H]4[C@@]5(C)CCC(=O)C(C)(C)[C@@H]5CC[C@]43C)[C@@H]12,30,29.9,36.3
C=CC(=O)O[C@H]1CC[C@]2(C)[C@H]3CC[C@@H]4[C@H]5[C@H](C(=C)C)CC[C@]5(C(=O)O)CC[C@@]4(C)[C@]3(C)CC[C@H]2C1(C)C,33.5,35.3,30.9
C=C(C)[C@@H]1CC[C@]2(C(=O)N3CCNCC3)CC[C@]3(C)[C@H](CC[C@@H]4[C@@]5(C)CCC(=O)C(C)(C)[C@@H]5CC[C@]43C)[C@@H]12,3.04,3.94,3
C=C(C)[C@@H]1CC[C@]2(C(=O)O)CC[C@]3(C)[C@H](CC[C@@H]4[C@@]5(C)CC[C@H](OC(=O)CC)C(C)(C)[C@@H]5CC[C@]43C)[C@@H]12,39.4,45.1,30.9
C=C(C)[C@@H]1CC[C@]2(C(=O)O)CC[C@]3(C)[C@H](CC[C@@H]4[C@@]5(C)CC[C@H](OC(=O)N6CCN(C(=O)C(F)(F)Cl)CC6)C(C)(C)[C@@H]5CC[C@]43C)[C@@H]12,31.3,30.7,26.3
C=C(C)[C@@H]1CC[C@]2(C(=O)O)CC[C@]3(C)[C@H](CC[C@@H]4[C@@]5(C)CC[C@H](OC(=O)CBr)C(C)(C)[C@@H]5CC[C@]43C)[C@@H]12,18.7,17.5,18.6
C=C(C)[C@@H]1CC[C@]2(C(=O)O)CC[C@]3(C)[C@H](CC[C@@H]4[C@@]5(C)CC[C@H](O)C(C)(C)[C@@H]5CC[C@]43C)[C@@H]12 [BETULINIC ACID],51.3,40.8,66
C=C(C)[C@@H]1CC[C@]2(C(=O)O)CC[C@]3(C)[C@H](CC[C@@H]4[C@@]5(C)CC[C@H](OC(=O)NCCCCNC(=O)CCl)C(C)(C)[C@@H]5CC[C@]43C)[C@@H]12,8.69,7.24,8.94
C=CCNC(=O)[C@]12CC[C@@H](C(=C)C)[C@@H]1[C@H]1CC[C@@H]3[C@@]4(C)CC[C@H](OC(=O)N5CCN(C(=O)CCl)CC5)C(C)(C)[C@@H]4CC[C@@]3(C)[C@]1(C)CC2,17.2,16.7,18
C=C(C)[C@@H]1CC[C@]2(C(=O)O)CC[C@]3(C)[C@H](CC[C@@H]4[C@@]5(C)CC[C@H](OC(=O)NCCCNC(=O)CCl)C(C)(C)[C@@H]5CC[C@]43C)[C@@H]12,7.34,7.25,8.48
C=C(C)[C@@H]1CC[C@]2(C(=O)N3CCN(C)CC3)CC[C@]3(C)[C@H](CC[C@@H]4[C@@]5(C)CC[C@H](OC(=O)N6CCN(C(=O)CCl)CC6)C(C)(C)[C@@H]5CC[C@]43C)[C@@H]12,21.4,20.7,25.6
C=C(C)[C@@H]1CC[C@]2(C(=O)O)CC[C@]3(C)[C@H](CC[C@@H]4[C@@]5(C)CC[C@H](OC(C)=O)C(C)(C)[C@@H]5CC[C@]43C)[C@@H]12,32.1,43.6,35
C=C(C)[C@@H]1CC[C@]2(C(=O)N3CCN(C(=O)CCl)CC3)CC[C@]3(C)[C@H](CC[C@@H]4[C@@]5(C)CCC(=O)C(C)(C)[C@@H]5CC[C@]43C)[C@@H]12,2.01,2.52,–

# — ChEMBL document CHEMBL6114952, “Synthesis and antitumor effects of novel betulinic acid derivatives bearing electrophilic moieties” (Bioorg Med Chem, 2025)
